This is an account of results in paper PMC2826549 (Thrombosis research, 2009).

Common to all, as to format: cell-based
The target in assay [1] is T1, P2X1 (Homo sapiens, UniProt P51575).
T1 sequence (P51575 1-399): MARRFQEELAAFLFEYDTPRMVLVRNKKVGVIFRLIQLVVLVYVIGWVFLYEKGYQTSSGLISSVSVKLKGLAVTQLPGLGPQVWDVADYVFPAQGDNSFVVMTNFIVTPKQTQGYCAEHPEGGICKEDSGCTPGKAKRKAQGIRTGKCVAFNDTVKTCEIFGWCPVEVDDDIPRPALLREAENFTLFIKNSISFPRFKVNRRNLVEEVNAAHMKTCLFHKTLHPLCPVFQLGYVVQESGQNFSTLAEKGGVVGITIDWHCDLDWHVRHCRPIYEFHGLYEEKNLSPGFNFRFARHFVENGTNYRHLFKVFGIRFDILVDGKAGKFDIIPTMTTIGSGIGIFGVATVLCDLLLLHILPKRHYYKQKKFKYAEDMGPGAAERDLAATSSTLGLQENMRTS
Briefly: FLUO-4 flow cytometry of extracellular Ca2+ entry in human platelets. The settings on record: read-out: Ap4A Agonist Activity.

Assay [2] has as its target P2Y1 (Homo sapiens, UniProt P47900). Nature of the assay: inhibition of […] ADP-induced cytosolic Ca2+ increase in human platelets.
The target in assay [3] is P2Y12 (Homo sapiens, UniProt Q9H244). Briefly: VASP phosphorylation flow cytometry in human whole blood platelets.

Bounds are passed on as bounds.

P2Y1, sequence (P47900 whole entry): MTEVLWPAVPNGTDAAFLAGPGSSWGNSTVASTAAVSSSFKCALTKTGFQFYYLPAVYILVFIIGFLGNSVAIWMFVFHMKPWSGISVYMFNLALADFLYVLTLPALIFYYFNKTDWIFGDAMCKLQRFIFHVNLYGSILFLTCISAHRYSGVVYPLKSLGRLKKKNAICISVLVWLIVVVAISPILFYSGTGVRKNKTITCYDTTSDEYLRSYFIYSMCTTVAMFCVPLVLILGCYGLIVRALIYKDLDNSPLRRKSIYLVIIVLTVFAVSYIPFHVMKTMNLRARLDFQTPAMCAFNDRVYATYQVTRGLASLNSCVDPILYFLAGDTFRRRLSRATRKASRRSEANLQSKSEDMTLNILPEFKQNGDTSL
P2Y12, sequence (Q9H244 whole entry): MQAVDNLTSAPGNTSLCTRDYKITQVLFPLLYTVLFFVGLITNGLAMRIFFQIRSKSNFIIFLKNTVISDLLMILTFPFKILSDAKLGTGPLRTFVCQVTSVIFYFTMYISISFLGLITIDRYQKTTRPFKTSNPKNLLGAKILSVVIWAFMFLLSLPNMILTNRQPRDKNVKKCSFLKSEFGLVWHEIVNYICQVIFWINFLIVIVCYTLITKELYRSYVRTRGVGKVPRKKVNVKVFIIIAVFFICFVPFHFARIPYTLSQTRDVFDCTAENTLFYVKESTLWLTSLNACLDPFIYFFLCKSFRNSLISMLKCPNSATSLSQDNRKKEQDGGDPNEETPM

Regarding `Nc1ncnc2c1ncn2[C@@H]1O[C@H](COP(=O)(O)OP(=O)(O)OP(=O)(O)OP(=O)(O)OC[C@H]2O[C@@H](n3cnc4c(N)ncnc43)[C@H](O)[C@@H]2O)[C@@H](O)[C@H]1O` [Ap4A, Diadenosine 5',5"'-P^1,P^4-tetraphosphate], the EC50 in assay [1] was roughly 0.3 µM. Further, the IC50 – broadly, the concentration at which inhibition is half-maximal – in assay [2] was 40.8 ± 12.3 µM; in assay [3], greater than 250 µM.
